Reference: patent US11433136B2, “Polyacetal polymers, conjugates, particles and uses thereof” (THE GENERAL HOSPITAL CORPORATION, priority 2015, dated 2022)

Experiments:
[1] = tested on: orthotopic PAN02 pancreatic tumors; assay: Orthotopic PAN02 pancreatic tumor study in lean and obese mice; type: in vivo, mouse; conditions: for gene and protein expression of activated PSC marker αSMA in tumors: losartan 90 mg/Kg i.p. every day
Description: (§1) Wild-type (WT) C57BL/6 and FVB male mice were originally obtained from Jackson Laboratory (The Jackson Laboratory, Bar Harbor, Me.) and bred and maintained in our defined-flora colony. KPC (Ptf1-Cre/LSL-KRAS^G12D/p53-R172H) and iKRAS (p48-Cre;R26-rtTa-IRES-EGFP;TetO-Kras^G12D mice) mice were obtained. To generate an obese model, mice (6-week old) were given either 10% or a 60% fat diet (D12450J and D12492, Research Diets, New Brunswick, N.J.) for 10 weeks (or until tumor collection in spontaneous models), as previously described (Surwit, R. S., et al. Metabolism: clinical and experimental 44, 645-651 (1995)). For implanted tumor experiments, AK4.4 cells (KrasG12D and p53 ? /) were isolated from mice generating spontaneous pancreatic tumors (Ptf1-Cre/LSL-Kras^G12D/p53Lox/ ? ) (Bardeesy, N., et al. Proc Natl Acad Sci USA 103, 5947-5952 (2006)). Orthotopic pancreatic tumors were generated by implanting a small piece (1 mm^3) of viable tumor tissue (from a source tumor in a separate animal) into the pancreas of a 6-8 week-old male lean or obese FVB (AK4.4 model) or C57BL/6 (PAN02 model) mouse. PAN02 tumor chunks and AK4.4 cells were authenticated by IDEXX laboratories. (PAN02: IDEXX RADIL Case #22366-2013. AK4.4: IDEXX RADIL Case #27818-2014). For AT1- and AT2-knockout studies, tumors were implanted into the pancreas of a 6-8-week-old male lean or obese C57BL/6, agtr1a−/− or agtr2−/− mice. With exception of PAN02, these orthotopically grown pancreatic cancers are characterized by a dense collagenous stroma, a hallmark of pancreatic cancer desmoplasia (Diop-Frimpong, B., et al. Proc Natl Acad Sci USA 108, 2909-2914 (2011)).
(§2) For all experiments unless specified below, mice bearing orthotopic PAN02 or AK4.4 pancreatic tumors were randomized into treatment groups (or no treatment) and tumors were collected at day 21 after implantation. For tumor growth study with chemotherapy, mice were divided into treatment groups 7 days after implantation, and treated with either 5-FU (30 mg/Kg i.v. every 4 days) or an equal volume of saline by intravenous injection on days 7, 11 and 15 after implantation, with tumors collected at day 19. For tumor growth study with losartan, mice were treated with losartan (90 mg/Kg i.p. every day) or an equal volume of PBS intraperitoneally starting on day 5 after implantation and for the duration of the study. In the combined experiment of losartan and 5-FU, the same protocol was used for each drug as described above. TAN depletion by a Ly6G specific inhibitor (BioExcell, 4 mg/Kg i.p. every 2 days) was administered to PAN02 bearing animals starting at day 1 or day 7, and to AK4.4 bearing animals at day 7. IL-1β inhibition (MM425B, Endogen/Pierce Biotechnology, 2 mg/Kg i.p. every 2 days) was administered to PAN02 bearing animals starting at day 7. At the completion of the study, adipose tissue and tumor samples were collected, weighed, and processed for further analysis. When spontaneous models were used, tumors were collected when palpable.
(§3) To assess obesity-induced ECM remodeling and fibrosis fibrillar collagen accumulation was quantified using second harmonic generation imaging, and collagen-I content, hyaluronan, MMPs levels and fibrosis related signaling pathways (e.g. AT-I, CTGF, TSP 1, TGFβ1, and P38/ERK signaling) were measured by rtPCR array, immunohistochemistry and immunoblotting. The topographical distribution and density of cancer-associated fibroblasts (CAFs) in tumor sections was detected by staining for αSMA activated fibroblast marker. Vessel morphology and perfusion was assessed using standard histological analyses.
Mice bearing orthotopic PAN02 were injected with 30 mg/kg of 5-FU 3 weeks after tumor implantation, administered retro-orbitally 30 min prior to tumor removal. The tissue was dabbed of excess blood and then snap-frozen in liquid nitrogen for analysis. […]

[2] = tested on: orthotopic AK4.4 pancreatic tumors; assay: Orthotopic AK4.4 pancreatic tumor study in lean and obese mice; type: in vivo, mouse; conditions: for gene and protein expression of activated PSC marker αSMA in tumors: losartan 90 mg/Kg i.p. every day
Description: as §1, §2, §3
Tumor-bearing mice were perfused through intracardiac injection of PBS and sacrificed. Pancreatic tumor tissues were harvested, minced, and digested at 37° C. for 1 h with DMEM containing collagenase type 1A (1.5 mg/mL), hyaluronidase (1.5 mg/mL), and DNase (2 mg/mL). The digestion mixtures were filtered through 70-μm cell strainers. […]

[3] = lean mice, 3 doses of 5-FU 30 mg/kg BW q4d
[4] = obese mice, 3 doses of 5-FU 30 mg/kg BW q4d
[5] = obese mice, effects only modest in lean animals
[6] = obese, but not lean mice, losartan

Row | Compound | reduction in tumor weight as compared to untreated controls [1, 3] [%] | effect on tumor weight [1, 4] | delivery of 5-FU to tumors ([1]; tumors in obese mice versus lean, 30 mg/kg, 30 min prior to tumor removal) | reduction in tumor weight as compared to untreated controls [2, 3] [%] | effect on tumor weight [2, 4] | gene and protein expression of activated PSC marker αSMA in tumors ([1]; lean mice) | response to chemotherapy with AT1 blockade ([1]; obese but not lean animals, losartan plus 5-FU) | tumor weight, losartan monotherapy ([1]; obese mice) | gene and protein expression of activated PSC marker αSMA in tumors ([1]; obese mice) | obesity-induced abnormal expression of desmoplasia-related markers and AT1 downstream signaling [1, 5] | gene and protein expression of collagen-I and fibrillar collagen in tumors [1, 6] | gene and protein expression of activated PSC marker αSMA in tumors ([2]; lean mice) | tumor weight, losartan monotherapy ([2]; obese mice) | gene and protein expression of activated PSC marker αSMA in tumors ([2]; obese mice) | obesity-induced abnormal expression of desmoplasia-related markers and AT1 downstream signaling [2, 5] | response to chemotherapy with AT1 blockade ([2]; obese mice, somewhat effective in the lean setting, losartan plus 5-FU) | gene and protein expression of collagen-I and fibrillar collagen in tumors [2, 6]
1 | O=c1[nH]cc(F)c(=O)[nH]1 [Example 5-FU, 5-fluorouracil] | 50 | did not significantly reduce tumor weight | decreased | 50 | did not significantly reduce tumor weight |  |  |  |  |  |  |  |  |  |  |  | 
2 | CCCCc1nc(Cl)c(CO)n1Cc1ccc(-c2ccccc2-c2nn[nH]n2)cc1 [losartan] |  |  |  |  |  | only mildly | enhanced | reduced tumor weight | reduce | normalized | decrease | only mildly | reduced tumor weight | reduce | normalized | improved therapeutic response in tumors to a greater extent | decrease
